Tested on: P12-Ichikawa
Experiment: cell viability relative to DMSO control; higher = less cytotoxic
Conditions: 48 h
How it was run: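 Leukemia cells (NOMO1 or SEM, 500 cells/well; P12-Ichikawa, 1000 cells/well) were seeded in 5 μl in 1536-well plates after at least four passages of adaptation to each medium. They received library compounds in DMSO by pin dosing, 11 threefold points from 47 μM to 0.79 nM. Luminescence with CellTiter-Glo One was read after 48 h at 37°C. Viability is stated per plate relative to DMSO wells, with cell-free wells as background.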

[1] = HPLM + 10% dialyzed FBS, 0.000781 µM
[2] = HPLM + 10% dialyzed FBS, 0.00234 µM
[3] = HPLM + 10% dialyzed FBS, 0.00702 µM
[4] = HPLM + 10% dialyzed FBS, 0.0211 µM
[5] = HPLM + 10% dialyzed FBS, 0.0632 µM
[6] = HPLM + 10% dialyzed FBS, 0.19 µM
[7] = HPLM + 10% dialyzed FBS, 0.569 µM
[8] = HPLM + 10% dialyzed FBS, 1.71 µM
[9] = HPLM + 10% dialyzed FBS, 5.12 µM
[10] = HPLM + 10% dialyzed FBS, 15.4 µM
[11] = HPLM + 10% dialyzed FBS, 46.1 µM
[12] = RPMI 5 mM glucose + 10% FBS, 0.000781 µM
[13] = RPMI 5 mM glucose + 10% FBS, 0.00234 µM
[14] = RPMI 5 mM glucose + 10% FBS, 0.00702 µM
[15] = RPMI 5 mM glucose + 10% FBS, 0.0211 µM
[16] = RPMI 5 mM glucose + 10% FBS, 0.0632 µM
[17] = RPMI 5 mM glucose + 10% FBS, 0.19 µM
[18] = RPMI 5 mM glucose + 10% FBS, 0.569 µM
[19] = RPMI 5 mM glucose + 10% FBS, 1.71 µM
[20] = RPMI 5 mM glucose + 10% FBS, 5.12 µM
[21] = RPMI 5 mM glucose + 10% FBS, 15.4 µM
[22] = RPMI 5 mM glucose + 10% FBS, 46.1 µM
[23] = RPMI 5 mM glucose + 10% dialyzed FBS, 0.000781 µM
[24] = RPMI 5 mM glucose + 10% dialyzed FBS, 0.00234 µM
[25] = RPMI 5 mM glucose + 10% dialyzed FBS, 0.00702 µM
[26] = RPMI 5 mM glucose + 10% dialyzed FBS, 0.0211 µM
[27] = RPMI 5 mM glucose + 10% dialyzed FBS, 0.0632 µM
[28] = RPMI 5 mM glucose + 10% dialyzed FBS, 0.19 µM
[29] = RPMI 5 mM glucose + 10% dialyzed FBS, 0.569 µM
[30] = RPMI 5 mM glucose + 10% dialyzed FBS, 1.71 µM
[31] = RPMI 5 mM glucose + 10% dialyzed FBS, 5.12 µM
[32] = RPMI 5 mM glucose + 10% dialyzed FBS, 15.4 µM
[33] = RPMI 5 mM glucose + 10% dialyzed FBS, 46.1 µM

Row | Structure (SMILES) | cell viability [1] | cell viability [2] | cell viability [3] | cell viability [4] | cell viability [5] | cell viability [6] | cell viability [7] | cell viability [8] | cell viability [9] | cell viability [10] | cell viability [11] | cell viability [12] | cell viability [13] | cell viability [14] | cell viability [15] | cell viability [16] | cell viability [17] | cell viability [18] | cell viability [19] | cell viability [20] | cell viability [21] | cell viability [22] | cell viability [23] | cell viability [24] | cell viability [25] | cell viability [26] | cell viability [27] | cell viability [28] | cell viability [29] | cell viability [30] | cell viability [31] | cell viability [32] | cell viability [33]
1 | CCCCCCCCCC(=O)N[C@@H](Cc1c[nH]c2ccccc12)C(=O)N[C@H](CC(N)=O)C(=O)N[C@@H](CC(=O)O)C(=O)N[C@@H]1C(=O)NCC(=O)N[C@@H](CCCN)C(=O)N[C@@H](CC(=O)O)C(=O)N[C@H](C)C(=O)N[C@@H](CC(=O)O)C(=O)NCC(=O)N[C@H](CO)C(=O)N[C@@H]([C@@H](C)CC(=O)O)C(=O)N[C@@H](CC(=O)c2ccccc2N)C(=O)O[C@@H]1C | 116% | 122% | 112% | 123% | 121% | 122% | 126% | 123% | 122% | 124% | 129% | 106% | 111% | 113% | 121% | 131% | 127% | 126% | 129% | 125% | 125% | 4.51% | 106% | 111% | 110% | 113% | 133% | 116% | 117% | 126% | 121% | 131% | 115%
2 | C[S+](=O)([O-])c1cccc(CNc2nc(Nc3ccc4c(c3)CCC(=O)N4)ncc2C(F)(F)F)c1 | 114% | 122% | 112% | 111% | 110% | 107% | 106% | 102% | 106% | 96.7% | 14.3% | 119% | 120% | 113% | 120% | 108% | 111% | 113% | 103% | 101% | 89.9% | 25.9% | 110% | 120% | 120% | 113% | 111% | 110% | 106% | 114% | 104% | 94.3% | 32.3%
3 | O=C(Nc1ncc(-c2cc(C(F)F)nn2-c2c(Cl)cccc2Cl)s1)C1CC1 | 116% | 122% | 123% | 131% | 130% | 129% | 126% | 14.2% | 18.3% | 11% | 14.6% |  |  |  |  |  |  |  |  |  |  |  |  |  |  |  |  |  |  |  |  |  | 
4 | CC(C)c1cc(C(=O)N2Cc3ccc(CN4CCN(C)CC4)cc3C2)c(O)cc1O | 118% | 121% | 123% | 106% | 124% | 109% | 89.3% | 65.8% | 54.7% | 52.8% | 51.4% | 115% | 119% | 115% | 105% | 114% | 97.7% | 56.4% | 52.5% | 41.3% | 40.7% | 39.8% | 119% | 122% | 125% | 112% | 125% | 112% | 65.3% | 50% | 43.3% | 44.5% | 43.3%
5 | CC(C)c1ccc(Cn2ccc3c4c(N)nc(NC5CC5)nc4ccc32)cc1 | 110% | 116% | 119% | 84% | 116% | 100% | 83.4% | 65.6% | 32.7% | 26.7% | 2.54% | 118% | 123% | 127% | 84.8% | 126% | 133% | 133% | 114% | 52.2% | 51.5% | 2.24% | 118% | 124% | 122% | 86.4% | 139% | 126% | 132% | 85.5% | 36.5% | 32.1% | 2.44%
6 | Nc1nc(N)c2nc(-c3cccc(O)c3)c(-c3cccc(O)c3)nc2n1 | 117% | 113% | 113% | 110% | 120% | 117% | 94.6% | 89.9% | 81.2% | 72.2% | 55.2% | 108% | 117% | 113% | 109% | 122% | 112% | 118% | 118% | 101% | 89% | 28.1% | 111% | 116% | 113% | 123% | 120% | 114% | 107% | 116% | 108% | 95.5% | 52.1%
7 | CNC[C@H](O)c1cccc(O)c1 | 92% | 95.4% | 103% | 12.5% | 107% | 102% | 108% | 116% | 111% | 105% | 109% | 84.8% | 98.4% | 94.8% | 15.9% | 101% | 109% | 103% | 109% | 99.5% | 103% | 114% | 84.5% | 84.4% | 89.1% | 26.2% | 97.9% | 99.5% | 101% | 96.3% | 91.2% | 105% | 98%
